Like-named read-outs stand apart in the source and are kept apart here. Each block holds one compound with its values, some of them ahead of it.
Experiments:
[1] = system: rabbit duodenum smooth muscle (motilin and erythromycin induced contractions); test: inhibition of motilin (porcine) induced contractions in rabbit duodenum smooth muscle; type: cell-based; settings: for IC50: rabbit duodenum strips, porcine motilin; for inhibition at 2 µM: @ 2 μM (2.0 μM)
Procedure: Select compounds of the invention were evaluated for their ability to inhibit motilin and erythromycin induced contractions in the rabbit duodenum smooth muscle. Rabbits were fasted 24-48 h and euthanized. The venral midline incision was made approximately 7.5 cm above the umbilicus upto the xyphoid process, exposing the upper peritoneal cavity. The first 8 cm. of the duodenum starting at the pyloric valve was quickly removed and placed in Krebs solution containing NaCl, ([…]), KCl (4.7 mM), MgSO4 *7 H2 O (1.2 mM), CaCl2 *2 H2 O (2.4 mM), KH2 PO4 (1 mM), D-glucose (10 mM), and NaHCO3 (24 mM). The lumen was flushed with Krebs and excess tissue was removed. The tissue was cut lengthwise, splayed open with the longitudinal muscle layer facing up, and the longitudinal muscle layer was released away from the circular muscle and cut into 3×30 mm strips. A pre-tied 4-0 silk ligature with a loop was placed at the middle of the strip and the strip was folded over the loop so the strip was half its original length. The tissues were mounted in a 10 mL tissue bath (Radnotti Glass Technology, Inc., Monrovia, Calif.) containing Krebs solution gassed with 95% O2 5% CO2 at 37° C. […] The tissues were allowed to equilibrate for 60-90 min with 2-3 wash cycles. The tissues were equilibrated with two initial contractions induced by a concentration of acetylcholine (1×10^-4 M) that produced a maximal contraction (0.1 mM), with the highest taken as 100% maximall contraction of that tissue. Base line and response levels are expressed as grams tension developed and as a percent of the response to acetylcholine. The test compounds were dissolved in DMSO (2 mM/100% DMSO) and applied to the prepared strips 5-15 minutes prior to the addition of porcine motilin. After addition, the tension is constantly monitored over 5 min and the maximum tension is recorded. The percent contraction was measured at four ascending concentrations and where appropriate IC50s were determined.

[2] = molecular target: T1, motilin receptors located on the colon of mature rabbits (Oryctolagus cuniculus, UniProt G1T803); test: competition with radiolabeled (125I) porcine motilin for the motilin receptors of rabbit colon; type: binding; settings: for IC50: rabbit colon, 125I motilin
T1 construct: The colon from mature New Zealand rabbits was removed, dissected free from the mucosa and serosa layers, and diced into small pieces; from tissue; host or cells: colon smooth muscle of mature New Zealand rabbits, crude membrane homogenate
Procedure: The compounds of the invention were tested for their ability to compete with radiolabeled motilin (porcine) for the motilin receptors located on the colon of mature rabbits. The colon from mature New Zealand rabbits was removed, dissected free from the mucosa and serosa layers, and diced into small pieces. […] The homogenate was centrifuged at 1000×g for 15 min. and the supernatant discarded. The pellet was washed twice before being suspended in homogenizing buffer. This crude homogenate is then passed first through a 19 gauge needle then a 23 gauge needle to further suspend the material and stored as -80° C. […] After 30 min, at 30° C., the material was cooled on ice and centrifuged at 13,000×g for 1 minute. The pellet was washed with 1 mL 0.9% saline and centrifuged at 13,000×g for 15 seconds. The pellet was washed again with cold saline and the supernatant was removed. The pellet was counted in the gamma counter to determine the percentage of […] motilin and thereby the percent inhibition of the test compound. IC50s were determined for some compounds by standard techniques.

humans = settings: intravenous, Christofides et al. 1979; cited from earlier work
[3] = system: smooth muscle in the stomach tissue of dogs, rabbits, and humans and in the colon of rabbits; settings: cited from earlier work
motilin receptor = settings: Weber et al. 1993; cited from earlier work
[4] = Oryctolagus cuniculus, read-out: IC50

T1 sequence (G1T803 1-400): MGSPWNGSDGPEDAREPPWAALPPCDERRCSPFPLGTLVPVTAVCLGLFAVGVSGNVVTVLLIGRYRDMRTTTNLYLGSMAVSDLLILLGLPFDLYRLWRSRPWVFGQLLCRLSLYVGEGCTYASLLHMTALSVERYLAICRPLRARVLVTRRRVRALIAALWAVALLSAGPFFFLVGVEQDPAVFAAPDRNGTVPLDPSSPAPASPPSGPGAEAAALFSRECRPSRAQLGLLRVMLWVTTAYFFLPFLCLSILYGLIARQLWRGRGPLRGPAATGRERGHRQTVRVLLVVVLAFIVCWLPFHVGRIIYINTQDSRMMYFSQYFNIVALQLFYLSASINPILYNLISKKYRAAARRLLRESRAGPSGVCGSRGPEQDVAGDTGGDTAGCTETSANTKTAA

inhibition at 0.25 µM ([2]; @ 0.25 μM): 34%
SMILES: O=C(Nc1ccccc1)N(CC1=CC(Cc2ccc(F)cc2)(NC(=O)C(Cl)(Cl)Cl)CC1)c1cccc(OCCN2CCOCC2)c1 (stereo not shown) [Compound 67]
inhibition at 1 µM ([1]; Oryctolagus cuniculus): 25.7%

IC50 ([2]; read-out: IC50): 56 nM
SMILES: COc1ccc(CC2(NC(=O)C(Cl)(Cl)Cl)C=C(CN(C(=O)c3ccccc3)c3cccc(OCCN4CCOCC4)c3)CC2)cc1 (stereo not shown) [Compound 66]
inhibition at 1 µM ([1]; Oryctolagus cuniculus): 58%

inhibition at 0.05 µM ([2]; @ 0.05 μM): 64%
SMILES: O=C(c1ccc(Br)cc1)N(CC1=CC(Cc2ccccc2)(NC(=O)C(Cl)(Cl)Cl)CC1)c1cccc(OCCN2CCOCC2)c1 (stereo not shown) [Compound 61]
inhibition at 1 µM ([1]; Oryctolagus cuniculus): 63%

inhibition at 0.1 µM ([2]; @ 0.1 μM): 70%
SMILES: O=C(Nc1ccccc1)N(CC1=CC(Cc2cccc(Cl)c2)(NC(=O)C(Cl)(Cl)Cl)CC1)c1cccc(OCCN2CCOCC2)c1 (stereo not shown) [Compound 68]
inhibition at 1 µM ([1]; Oryctolagus cuniculus): 51%

IC50 ([2]; read-out: IC50): 37 nM
SMILES: O=C(Nc1cccc(F)c1)N(CC1=CC(Cc2ccccc2)(NC(=O)C(Cl)(Cl)Cl)CC1)c1cccc(OCCN2CCOCC2)c1 (stereo not shown) [Compound 63]
inhibition at 1 µM ([1]; Oryctolagus cuniculus): 63.8%

IC50 ([2]; read-out: IC50): 56 nM
SMILES: COc1ccc(CC2(NC(=O)C(Cl)(Cl)Cl)C=C(CN(C(=O)c3ccc(F)cc3)c3cccc(OCCN4CCOCC4)c3)CC2)cc1 (stereo not shown) [Compound 65]
inhibition at 1 µM ([1]; Oryctolagus cuniculus): 72%

IC50 ([2]; read-out: IC50): 50 nM
SMILES: O=C(c1ccc(F)c(F)c1)N(CC1=CC(Cc2ccccc2)(NC(=O)C(Cl)(Cl)Cl)CC1)c1cccc(OCCN2CCOCC2)c1 (stereo not shown) [Compound 62]
inhibition at 1 µM ([1]; Oryctolagus cuniculus): 65%

IC50 ([2]; read-out: IC50): 90 nM
SMILES: COc1ccc(C(=O)N(CC2=CC(Cc3ccccc3)(NC(=O)C(Cl)(Cl)Cl)CC2)c2cccc(OCCN3CCOCC3)c2)cc1 (stereo not shown) [Compound 60]
inhibition at 10 µM ([1]; Oryctolagus cuniculus): 49%

The next lines start with the compound.

SMILES: CCN(CC)CCOc1cccc(N(CCN(CC)CC)CC2=CC(Cc3ccccc3)(NC(=O)C(Cl)(Cl)Cl)CC2)c1 (stereo not shown) [Compound 51]
inhibition at 5 µM ([1]; Oryctolagus cuniculus): 74%

SMILES: O=C(c1ccccc1)N(CC1=CC(Cc2ccccc2)(NC(=O)C(Cl)(Cl)Cl)CC1)c1cccc(OCCN2CCOCC2)c1 (stereo not shown) [Compound 10, 3-Benzyl-3-trichloroacetylamino-1-(N-phenylcarbonyl)-N-[(3-(2-morpholinoethoxy)phenyl)amino]methylcyclopentene]
IC50 ([2]; read-out: IC50 (unit inferred)): 300 nM
IC50 [1, 4]: 393 nM

SMILES: O=C(Nc1ccccc1)N(CC1=CC(Cc2ccccc2)(NC(=O)C(Cl)(Cl)Cl)CC1)c1cccc(OCCN2CCOCC2)c1 (stereo not shown) [Compound 8]
IC50 ([2]; read-out: IC50): 20 nM
IC50 ([1]; read-out: IC50): 280 nM

SMILES: CC[C@H](C)[C@H](NC(=O)[C@@H]1CCCN1C(=O)[C@@H](NC(=O)[C@@H](N)Cc1ccccc1)C(C)C)C(=O)N[C@@H](Cc1ccccc1)C(=O)N[C@H](C(=O)N[C@@H](Cc1ccc(O)cc1)C(=O)NCC(=O)N[C@@H](CCC(=O)O)C(=O)N[C@@H](CC(C)C)C(=O)N[C@@H](CCC(N)=O)C(=O)N[C@@H](CCCNC(=N)N)C(=O)N[C@@H](CCSC)C(=O)N[C@@H](CCC(N)=O)C(=O)N[C@@H](CCC(=O)O)C(=O)N[C@@H](CCCCN)C(=O)N[C@@H](CCC(=O)O)C(=O)N[C@@H](CCCNC(=N)N)C(=O)N[C@@H](CC(N)=O)C(=O)N[C@@H](CCCCN)C(=O)NCC(=O)N[C@@H](CCC(N)=O)C(=O)O)[C@@H](C)O [motilin]
gastric emptying and gut hormone release (humans): increase gastric emptying and gut hormone release
smooth muscle contractions [3]: induces smooth muscle contractions

SMILES: CCN(CC)CCN(CC1=CC(Cc2ccccc2)(NC(=O)C(Cl)(Cl)Cl)CC1)c1cccc(OCCN2CCOCC2)c1 (stereo not shown) [Compound 53]
IC50 ([2]; read-out: IC50 (unit inferred)): 300 nM
IC50 [1, 4]: 3930 nM

SMILES: CCN(CC)CCSc1ccc(NCC2=CC(Cc3ccccc3)(NC(=O)C(Cl)(Cl)Cl)CC2)cc1 (stereo not shown) [Compound 58]
IC50 ([2]; read-out: IC50 (unit inferred)): 1800 nM
inhibition at 2 µM ([1]; Oryctolagus cuniculus): 44%

SMILES: O=C(Nc1ccccc1)N(CC1=CC(Cc2ccccc2)(NC(=O)C(Cl)(Cl)Cl)CC1)c1cccc(OCCN2CCOCC2)c1 (stereo not shown) [Compound 9, 3-Benzyl-3-trichloroacetylamino-1-(N-phenylaminocarbonyl)-N-[(3-(2-morpholinoethoxy)phenyl)amino]methylcyclopentene]
IC50 ([2]; read-out: IC50): > 300 nM
IC50 ([1]; read-out: IC50): 890 nM

SMILES: CC[C@H]1OC(=O)[C@H](C)[C@@H](O[C@H]2C[C@@](C)(OC)[C@@H](O)[C@H](C)O2)[C@H](C)[C@@H](O[C@@H]2O[C@H](C)C[C@H](N(C)C)[C@H]2O)[C@](C)(O)C[C@@H](C)C(=O)[C@H](C)[C@@H](O)[C@]1(C)O [erythromycin]
biological responses compared with motilin (motilin receptor): elicits biological responses that are comparable to motilin itself

SMILES: O=C(NC1(Cc2ccccc2)C=C(CN(CCN2CCOCC2)Cc2cccc(OCCN3CCOCC3)c2)CC1)C(Cl)(Cl)Cl (stereo not shown) [Compound 57]
IC50 ([2]; read-out: IC50 (unit inferred)): 700 nM
IC50 ([1]; Oryctolagus cuniculus, read-out: IC50 (unit inferred)): 1060 nM

SMILES: CCN(CC)CCN(CC1=CC(Cc2ccccc2)(NC(=O)C(Cl)(Cl)Cl)CC1)c1cccc(OCCCN2CCCCC2)c1 (stereo not shown) [Compound 54]
IC50 ([2]; read-out: IC50 (unit inferred)): 900 nM
inhibition at 5 µM ([1]; Oryctolagus cuniculus): 24%

SMILES: CCN(CC)CCN(CC1=CC(Cc2ccccc2)(NC(=O)C(Cl)(Cl)Cl)CC1)c1cccc(O)c1 (stereo not shown) [Compound 50]
inhibition at 10 µM ([2]; @ 10 μM): 81%
inhibition at 20 µM ([1]; Oryctolagus cuniculus, @ 20 μM): 98%

SMILES: O=C(Nc1ccccc1)N(CC1=CC(Cc2ccccc2)(NC(=O)C(Cl)(Cl)Cl)CC1)c1cccc(OCCN2CCOCC2)c1 (stereo not shown) [Compound 7, 3-Benzyl-3-trichloroacetylamino-1-(N-phenylaminocarbonyl)-N-[(3-(2-morpholinoethoxy)phenyl)amino]methylcyclopentene]
IC50 ([2]; read-out: IC50): 45 nM
IC50 ([1]; read-out: IC50): 287 nM

SMILES: CCN(CC)CCN(CC1=CC(Cc2ccccc2)(NC(=O)C(Cl)(Cl)Cl)CC1)c1cccc(OCCN2CCCCC2)c1 (stereo not shown) [Compound 52]
IC50 ([2]; read-out: IC50 (unit inferred)): 600 nM
inhibition at 10 µM ([1]; Oryctolagus cuniculus): 70%

SMILES: CN(C)CCSc1ccc(NCC2=CC(Cc3ccccc3)(NC(=O)C(Cl)(Cl)Cl)CC2)cc1 (stereo not shown) [Compound 56]
IC50 ([2]; read-out: IC50 (unit inferred)): 1500 nM
inhibition at 2 µM ([1]; Oryctolagus cuniculus): 24%

SMILES: O=C(c1ccc(F)cc1)N(CC1=CC(Cc2ccccc2)(NC(=O)C(Cl)(Cl)Cl)CC1)c1cccc(OCCN2CCOCC2)c1 (stereo not shown) [Compound 59]
IC50 ([2]; read-out: IC50): 52 nM
inhibition at 3 µM ([1]; Oryctolagus cuniculus, @ 3.0 μM): 54%

SMILES: CCN(CC)CCN(CC1=CC(Cc2ccccc2)(NC(=O)C(Cl)(Cl)Cl)CC1)c1cccc(OCCN2CCCC2)c1 (stereo not shown) [Compound 55]
IC50 ([2]; read-out: IC50 (unit inferred)): 900 nM
inhibition at 2 µM ([1]; Oryctolagus cuniculus): 43%
